Patent US20230158105A1, “Compositions and uses of Oligo-chromopeptides and methods of making” (JDS Therapeutics, LLC, priority 2021, published 2023)
Marks after values point to notes of the source that are not given here.

Experiments:
[1] = tested on: corticosterone (CORT) induced aging rats; assay: CORT-induced aging rats: body weight, serum and liver biochemistry, liver telomere length; type: in vivo, Wistar rats; details: oral gavage daily 21 days, O-CP30/O-CP300 = 30/300 mg HED, NR 300 mg HED, mean ± SD
Experimental: Wistar rats (n=7 in each group; 8 weeks old) were used and animals were reared at the temperature of (22±2° C.), humidity (55±5%) and a 12/12 hour light/dark cycle. Pellet food and water were provided ad libitum. The experiment was conducted under the protocol approved by Firat University. Two control groups were taken for studies. The normal control group was given phosphate-buffered saline (PBS) and the CORT control was given corticosterone (CORT). Doses of O-CPs and NR were determined based on the Human Equivalent Dose (HED) for Drug Development according to Shin et al. (2010). Conversion of human doses to animal doses was based on body surface area. A conversion factor of 6.17 was used to convert human doses to rat doses. The human equivalent dose was 30 mg and 300 mg for O-CPs and 300 mg for nicotinamide riboside. CORT (Sigma-Aldrich Co., St. Louis, Mo., USA) was suspended in saline with 0.1% Tween 80% and 0.2% DMSO. Rats in groups 2-7 were injected daily with CORT (40 mg/kg) subcutaneously for 21 consecutive days. All injections were performed in a volume of 2 ml/kg body weight, between 7:00 and 7:10 p.m. The rats were dosed with study product involving various dosages of O-CPs, NR and their combination by oral gavage, which was administered daily for 21 days. Serum levels of glucose, triglycerides, cholesterol, aspartate aminotransferase (AST), alanine aminotransferase (ALT), urea, and creatinine were analyzed with a portable automated chemistry analyzer (Samsung LABGEO PT10, Samsung Electronics Co., Suwon, Korea). Total serum CORT levels, and levels of nicotinamide adenine dinucleotide (NAD+) and NAD+ precursors such as nicotinamide (Nam), tryptophan (Trp), nicotinic acid (Na) and nicotinamide mononucleotide (NMN) and NADPH were measured […] using a commercial kit following the manufacturer's instructions by ELISA (Elx-800, Bio-Tek Instruments Inc, Vermont, USA). Telomere length in the liver was determined by qPCR. Telomerase activity was measured according to the telomerase repeat amplification protocol using a Trapeze kit (Chemicon/Millipore, Billerica, Mass.). The levels of glutathione (GSH) and reactive oxygen species (ROS) in the rat liver were determined using the corresponding commercial ELISA kits (Wako Pure Chemical Industries) according to the manufacturer's instructions. Serum levels of malondialdehyde (MDA) were analyzed by High Performance Liquid Chromatography (HPLC). Antioxidant enzymes [superoxide dismutase (SOD), catalase (CAT), glutathione peroxidase (GSHPx)] were measured using the relevant commercial kits according to the enzyme-linked immunosorbent assay (ELISA, Elx-800, Bio-Tek Instruments Inc, Vermont, USA) method. The samples size of the study was determined to be totally 49 rats (n=7; 7 groups) with the help of G*Power package program (Version 3.1.9.2) with alpha error 0.05 and 90% power with effect size 0.7 calculated from previous studies. The data was analyzed using statistical analysis software (SPSS 17.0). In this study, conformity to the assumption of normality from the prerequisites of the parametric tests was performed using the “Shapiro-Wilk” test and the homogeneity of the variances were checked with the “Levene” test. Analysis of variance (ANOVA) test was performed to determine the differences between the groups and post-hoc Tukey test was used for multiple comparisons of the groups. Statistical significance was accepted as P<0.05.

[2] = tested on: LPS-induced pyrexia in mice; assay: LPS-induced pyrexia in mice: serum biochemistry, liver and lung antioxidant enzymes, pyrexia; type: in vivo, BALB/c mice; details: oral, 2 weeks before LPS, HED Se 200 μg, Zn 30 mg, O-CPs 300 mg, mean ± SD; for ALP / ALT / AST / BUN / Creatine / LDH / T Bilirubin: serum
Experimental: Six-week-old male BALB/c mice was purchased from the Firat University Experimental Animal Center. All mice were ad libitum access to standard rodent chow and water during the study. Mice were housed in cages throughout the study. The following conditions were maintained: temperature, 22±2° C.; relative humidity, 55±5%; and a 12-hours light: dark cycle. The care and treatment of the animals were in accordance with the guidelines established by the Use of Laboratory Animals and were approved by the Animal Care and Use Committee of Firat University. Two control groups were taken for studies. The normal control group was given PBS and the other control was given lipopolysaccharides (LPS) along with a vehicle, i.e., phosphate buffered saline. Forty-two mice were randomly divided into 6 treatment groups with 7 mice in each group as follows: Selenomethionine, zinc picolinate and O-CPs or vehicle were orally administered 2 weeks before LPS treatment. Control mice received 50 μL of PBS. Subsequently, rats in Groups 2 through 6 received LPS (0.04 mg/kg i.p.) 30 min after active treatment with Se, ZnPic, and O-CPs. Basal temperature readings for all treatments and LPS injections were done between 8.00 and 9.00 GMT to avoid temperature differences due to circadian rhythm. The change in rectal temperature in all rats were recorded 30 min after PBS or LPS injection and at subsequent 30 min intervals for 4 hours. After 6 hours of LPS treatment, the mice were euthanized and their blood, liver and lungs were collected for further analysis. Doses of selenomethionine, zinc picolinate and O-CPs were determined based on the Human Equivalent Dose (HED) for Drug Development according to Shin et al. (2010). Conversion of human doses to animal doses were based on body surface area. A conversion factor of 12.33 was used to convert human doses to mouse doses. The human equivalent dose was 200 μg of selenium (Se) from selenomethionine, 30 mg of zinc (Zn) from zinc picolinate and 300 mg of O-CPs. Selenomethionine dose: 200 μg/70 kg=2.86 μg/kg/day human*12.33=35.23 μg/kg/day per mouse; Zinc picolinate (20%) dose: 30 mg/70 kg=0.428 mg/kg/day human*12.33=5.28 elemental zinc mg/kg/day mouse=5.28*100/20=26.4 mg/kg/day per mouse; O-CPs dose: 300 mg/70 kg=4.29 mg/kg/day human*12.33=52.84 mg/kg/day per mouse. Serum levels of glucose, triglycerides, cholesterol, aspartate aminotransferase (AST), alanine aminotransferase (ALT), urea, and creatinine were analyzed with a portable automated chemistry analyzer (Samsung LABGEO PT10, Samsung Electronics Co., Suwon, Korea). Serum levels of MDA were analyzed by HPLC. Antioxidant enzymes (SOD, CAT, GSHPx) were measured using the relevant commercial kits according to the enzyme-linked immunosorbent assay (ELISA, Elx-800, Bio-Tek Instruments Inc, Vermont, USA) method. Serum, zinc and selenium levels in liver and lung were detected by atomic absorption spectroscopy (AAS). The samples size of the study was 42 mice (n=7; 6 groups) and analyzed with the help of G*Power package program (Version 3.1.9.2) with alpha error 0.05 and 85% power with effect size 0.65 calculated from previous studies. The data was analyzed using statistical analysis software (SPSS 17.0). In this study, conformity to the assumption of normality from the prerequisites of the parametric tests was performed using the “Shapiro-Wilk” test and the homogeneity of the variances were checked with the “Levene” test. Analysis of variance (ANOVA) test was performed to determine the differences between the groups and post-hoc Tukey test was used for multiple comparisons of the groups. Statistical significance was accepted as P<0.05.

NC(=O)c1ccc[n+]([C@@H]2O[C@H](CO)[C@@H](O)[C@H]2O)c1 [NR, nicotinamide riboside]
Liver GSH ([1]; liver): 33.25 ± 2.07^bc U/mg protein
Liver NADPH ([1]; liver): 44.42 ± 2.31^c nmol/g
Liver Nicotinamide (Nam) ([1]; liver): 1.60 ± 0.06^c μmol/g
Liver Nicotinamide adenine dinucleotide NAD+ ([1]; liver): 0.59 ± 0.04^c μmol/g
Liver Nicotinamide mono nucleotide (NMN) ([1]; liver): 0.30 ± 0.02^bc μmol/g
Liver Nicotinic acid (Na) ([1]; liver): 1.63 ± 0.09^abc μmol/g
CORT [1]: 102.16 ± 8.68^a ng/ml
Final Body Weight [1]: 222.86 ± 23.11^b g
GLU ([1]; serum glucose): 119.86 ± 7.10^ab mg/dl
ALT ([1]; serum): 98.00 ± 5.55 U/L
AST ([1]; serum): 114.71 ± 10.92 U/L
BUN ([1]; serum): 22.90 ± 1.87 mg/dL
CAT ([1]; serum): 114.69 ± 4.82^d U/ml
Creatine ([1]; serum): 0.37 ± 0.08
GSH-Px ([1]; serum): 26.28 ± 1.98^d U/ml
MDA ([1]; serum): 1.74 ± 0.07^b nmol/ml
SOD ([1]; serum): 61.36 ± 4.5^e U/ml

C[Se]CC[C@H](N)C(=O)O [Se, selenomethionine]
Liver, CAT [2]: 41.89 ± 4.03^c U/mg
Liver, GSHPx [2]: 44.79 ± 3.86^c U/mg
Liver, MDA [2]: 5.86 ± 0.26^b nmol/mL
Liver, SOD [2]: 95.16 ± 5.06^b U/mg
Lung, CAT [2]: 32.29 ± 1.86^b U/mg
Lung, GSHPx [2]: 33.86 ± 3.41^b U/mg
Lung, MDA [2]: 6.67 ± 0.49^b nmol/mL
Lung, SOD [2]: 59.32 ± 4.81^b U/mg
ALP [2]: 285.43 ± 10.33^b IU/L
ALT [2]: 261.57 ± 16.16^bc IU/L
AST [2]: 573.43 ± 59.23^b IU/L
BUN [2]: 34.36 ± 3.26^b mg/dL
Creatine [2]: 0.59 ± 0.08^ab mg/dL
LDH [2]: 192.11 ± 10.72^c IU/L
T Bilirubin [2]: 0.95 ± 0.08^b mg/dL

zinc picolinate [Zn]
Liver, CAT [2]: 43.06 ± 3.24^c U/mg
Liver, GSHPx [2]: 36.86 ± 1.98^d U/mg
Liver, MDA [2]: 5.92 ± 0.35^b nmol/mL
Liver, SOD [2]: 75.94 ± 5.93^c U/mg
Lung, CAT [2]: 28.53 ± 1.70^c U/mg
Lung, GSHPx [2]: 28.08 ± 1.98^c U/mg
Lung, MDA [2]: 6.83 ± 0.30^b nmol/mL
Lung, SOD [2]: 50.36 ± 2.93^c U/mg
ALP [2]: 292.71 ± 15.34^ab IU/L
ALT [2]: 280.43 ± 8.85^b IU/L
AST [2]: 580.86 ± 32.61^b IU/L
BUN [2]: 35.57 ± 3.20^ab mg/dL
Creatine [2]: 0.59 ± 0.06^ab mg/dL
LDH [2]: 216.13 ± 11.39^b IU/L
T Bilirubin [2]: 0.97 ± 0.08^b mg/dL
